One assay relates to Acinetobacter baumannii. Put plainly: DAPI/PI staining, laser scanning confocal microscopy (membrane integrity). Type of assay: cell-based. Particulars: A. baumannii 10^8 CFU/mL, 37 °C, 1-2 h, DAPI and PI staining. The text has this: Many naturally occurring antimicrobial peptides (AMPs) are cationic. Cationic AMPs (CAMPs) exert bactericidal activity by mechanisms featuring cell membrane disruption. Cyclotides are likely to kill germ by disrupting their membranes. Laser scanning confocal microscopy can be used to study the ability of cyclotides to destroy bacterial membrane. 4′, 6-diaminyl-2-phenylindole (DAPI) is a blue fluorescent dye that can penetrate membranes and stain both living and dead strains, while propyl iodide (PI) stains only strains with damaged membranes, glowing red[46],[47]. In this study, the bracelet cyclotide family members viba 11 and vija 10 interacted with A. baumannii and B. subtilis in their logarithmic phase at 37 °C for 1–2 h. After the addition of DAPI and PI fluorescent dyes, the samples were incubated in a dark room at room temperature for 15 min for staining. The stained samples were then centrifuged to concentrate, resuspended, and applied to a slide for observation using a confocal laser scanning microscope (FLUOVIEW FV3000, Olympus). […] With increasing concentration, the blue and red fluorescence gradually overlapped. […] However, the magnification is not sufficient to detect further details of membrane disruption. Therefore, further exploration can be conducted using methods such as scanning electron microscopy (SEM) to study the antibacterial mechanism in depth.
Figure 5 Study on the antimicrobial mechanism of cyclotides. (A) Incubation of Acinetobacter baumannii with sterile water, 1 MIC and 4 MIC of viba 11. (B) Incubation of Bacillus subtilis with sterile water, 1 MIC and 4 MIC of vija 10. All samples were stained with DAPI and PI. The negative control group PI is not stained and the membrane is intact, while the membrane treated with cyclotides was stained and the membrane are destroyed. Scale bar: 20 μm. Magnification: 600×.
Take 50 μL of A. baumannii and B. subtilis (10^8 CFU/mL), and add 50 μL of sterile water, different concentrations of cyclotides viba 11 and vija 10 to achieve final concentrations of 1 MIC and 4 MIC respectively. Incubate at 37 °C for 1–2 h. Subsequently, add 4,6-diamino-2-phenylindole (DAPI) and propidium iodide (PI) dyes at 20 μg/mL each, and incubate in the dark for 15 min. Centrifuge at 5000 rpm for 3 min to concentrate, discard the majority of the supernatant, and resuspend the bacteria in the remaining small volume of liquid. Mix well and take 10 μL of the stained sample onto a glass slide, gently place a cover slip on top with forceps, avoiding the formation of bubbles during the pressing process. After sealing the cover slip, check with a laser confocal microscope, and the observation was conducted using an objective lens with the maximum magnification of 60 × . […]

Assay [1] relates to Bacillus subtilis (CMCC(B)63501). Put plainly: microbe, parasite or virus in culture. Particulars: 10^6 CFU/ml, 96-well plate, overnight 37 °C, visual clarity, performed at least three times. The source says:
(§1) Viba 11, originally discovered in Viola baoshanensis[39] and found in other plants such as Viola tricolor[40], Viola betonicifolia, and Viola philippica, lacks biological activity studies. […] All purified cyclotides underwent antibacterial testing against Gram-positive bacterium Staphylococcus aureus (CMCC(B)26003-2-10) and Bacillus subtilis (CMCC(B)63501), Gram-negative bacteria, including Acinetobacter baumannii (ATCC19606), Escherichia coli (CMCC(B)44102-2-6), and Salmonella paratyphi (CMCC(B)50094-2-9).
(§2) Bacterial fluids are cultured overnight at 37 °C. The next day, the bacterial liquids are diluted to a concentration of 10^6 CFU/ml. Prepare different concentrations of cyclotide drugs and kanamycin sulfate in advance, and sequentially add the drugs and bacterial liquid to the 96-well plate. Negative controls consisted of sterile water and bacterial liquid. The plate is cultured overnight at 37 °C and observe whether the solution remains clear to see the growth of the bacterial suspension. Each test was performed three times at least.

The test system of assay [2] is Escherichia coli (CMCC(B)44102-2-6). Put plainly: microbe, parasite or virus in culture. The conditions noted are these: 10^6 CFU/ml, 96-well plate, overnight 37 °C, visual clarity, performed at least three times.
Text: as §1, §2

Assay [3] has as its system Acinetobacter baumannii (ATCC19606). Description: microbe, parasite or virus in culture. Particulars: Acinetobacter baumannii ATCC19606; 10^6 CFU/ml, 96-well plate, overnight 37 °C, visual clarity; performed at least three times.
Text: as §1, §2

Assay [4] deals with THLE-3 (human hepatocytes cells). Description: MTT cytotoxicity assay. Type of assay: cell-based. Particulars: THLE-3 cells, 48 h incubation, mean ± SD of at least three repeats. The method, then:
(§3) Five types of cells, namely A549 (human non-small cell lung cancer cells), T24 (human bladder cancer cells), 4T1 (mouse breast cancer cells), 7402 (human hepatocellular carcinoma cells), and THLE-3 (human hepatocytes cells), are selected for evaluating the cytotoxicity of viba 11, cycloviolacin O2, and vija 10 using the MTT (3-(4,5-dimethylthiazol-2-yl)-2,5-diphenyltetrazolium bromide) reagent.
(§4) To determine cell toxicity using MTT assay, cells are seeded in a 96-well plate and cultured for 24 h. After that, different concentrations of cyclotides are added to the cells and incubated for 48 h. MTT is then added to react with the cells, and after 4 h, the reaction is terminated by discarding the supernatant and adding dimethyl sulfoxide for resuspension. The absorbance at 570 nm is measured after 10 min of shaking at room temperature. Each test was performed three times at least. The data were analyzed using GraphPad Prism 8. During this process, the drug concentrations were transformed into logarithmic form with a base of 10 and plotted on the x-axis. Cell viability (%) = [A (cyclotides) − A (blank)]/[A (control) − A (blank)] × 100, which was represented on the y-axis. Using this method, we determined the IC50 value for each experiment, with each experiment repeated at least three times and the mean value calculated. The error was represented by the standard deviation of the IC50 obtained from three repetitions.
(In general: Tetrazolium assays rely on reduction of a dye to a coloured formazan, in cell work by metabolically active cells.)

The subject of assay [5] is A549 (human non-small cell lung cancer cells). Put plainly: MTT cytotoxicity assay. Type of assay: cell-based. The conditions noted are these: 48 h incubation, mean ± SD of at least three repeats. As for the experimental part: as §3, §4
For assay [6], the system named is 4T1 (mouse breast cancer cells). Put plainly: MTT cytotoxicity assay. Type of assay: cell-based. Particulars: 4T1 cells, 48 h incubation, mean ± SD of at least three repeats. As for the experimental part: as §3, §4
For assay [7], the system named is 7402 (human hepatocellular carcinoma cells). Description: MTT cytotoxicity assay. Particulars: 7402 cells, 48 h incubation, mean ± SD of at least three repeats. Type of assay: cell-based. The method, then:
as §3, §4

Assay [8] has as its system T24 (human bladder cancer cells). Description: MTT cytotoxicity assay. Type of assay: cell-based. The conditions noted are these: 48 h incubation, mean ± SD of at least three repeats. The method, then: as §3, §4
The subject of assay [9] is Salmonella paratyphi (CMCC(B)50094-2-9). Put plainly: MIC, broth dilution in 96-well plate. Type of assay: cell-based. Particulars: 10^6 CFU/ml, overnight 37 °C, visual clarity, performed at least three times.
Text: (§5) Cycloviolacin O2, known for its antimicrobial, hemolytic, and insecticidal activities, has been more extensively investigated[4],[20],[36]–[38]. Viba 11, originally discovered in Viola baoshanensis[39] and found in other plants such as Viola tricolor[40], Viola betonicifolia, and Viola philippica, lacks biological activity studies. These two cyclotides and vija 10 are high in content and easy to purify, and cycloviolacin O2 can also be used as a positive control to conduct activity study. In addition, few vija12 and 31 were extracted for antibacterial experiments. All purified cyclotides underwent antibacterial testing against Gram-positive bacterium Staphylococcus aureus (CMCC(B)26003-2-10) and Bacillus subtilis (CMCC(B)63501), Gram-negative bacteria, including Acinetobacter baumannii (ATCC19606), Escherichia coli (CMCC(B)44102-2-6), and Salmonella paratyphi (CMCC(B)50094-2-9). […] In addition, the MICs of viba 11, cycloviolacin O2 and vija 10 against B. subtilis were respectively 5.4 μM, 2.1 μM and 14.3 μM (Table 1). […] Therefore, it is hypothesized that the lower antimicrobial activity of vija 10 may be attributed to the presence of only one Lys residue in loop 5.
as §2
(Broth dilution looks for growth in wells or tubes with falling amounts of substance.)

The subject of assay [10] is Staphylococcus aureus (CMCC(B)26003-2-10). Description: MIC, broth dilution in 96-well plate. Particulars: 10^6 CFU/ml, overnight 37 °C, visual clarity, performed at least three times. Type of assay: cell-based.
Text: as §5, §2

The source of these data is paper PMC11056381, “Characterization and evaluation of cytotoxic and antimicrobial activities of cyclotides from Viola japonica” (Scientific Reports, 2024).

As a reminder, the IC50 is the concentration that inhibits the measured activity by half. Lower therefore signals higher potency.

The structures appear in SMILES notation. Converted amounts (≈) assume the structure as drawn. Residues, ends and D or L forms follow the SMILES beside them.

Consider `CC[C@H](C)[C@@H]1NC(=O)[C@H](C)NC(=O)CNC(=O)[C@H](CO)NC(=O)[C@H]([C@@H](C)CC)NC(=O)[C@@H]2CSSC[C@@H]3NC(=O)[C@H](C(C)C)NC(=O)[C@H](CCCCN)NC(=O)[C@H](CO)NC(=O)[C@H](CCCCN)NC(=O)[C@@H]4CSSC[C@H](NC(=O)[C@H](CO)NC(=O)[C@H](CCC(=O)O)NC(=O)CNC(=O)[C@H](CSSC[C@H](NC(=O)CNC1=O)C(=O)N[C@@H](CO)C(=O)N4)NC(=O)[C@@H]1CCCN1C(=O)[C@H]([C@@H](C)CC)NC(=O)CNC(=O)[C@H](CC(N)=O)NC(=O)[C@H](CCCNC(=N)N)NC(=O)[C@H](Cc1ccc(O)cc1)NC3=O)C(=O)N[C@@H](C(C)C)C(=O)N[C@@H](Cc1c[nH]c3ccccc13)C(=O)N[C@@H]([C@@H](C)CC)C(=O)N1CCC[C@H]1C(=O)N2` [viba 11] (HELM PEPTIDE1{A.I.G.C.S.C.K.S.K.V.C.Y.R.N.G.I.P.C.G.E.S.C.V.W.I.P.C.I.S.G}$PEPTIDE1,PEPTIDE1,4:R3-18:R3|PEPTIDE1,PEPTIDE1,6:R3-22:R3|PEPTIDE1,PEPTIDE1,11:R3-27:R3|PEPTIDE1,PEPTIDE1,1:R1-30:R2$$$V2.0), for which the “membrane integrity (PI red fluorescence)” value was “caused damage to the membrane integrity” in the assay with Acinetobacter baumannii (1 MIC) and “majority of the cell membranes were ruptured” with Acinetobacter baumannii (4 MIC). The MIC in assay [1] was 5.4 µM (≈ 16.8 µg/mL); in assay [2], greater than 21.6 µM; in [3], 10.8 µM (≈ 33.6 µg/mL); in [9], greater than 21.6 µM; in [10], greater than 21.6 µM. Besides, the IC50 in assay [4] was determined as 1609 ± 10 nM; in [5], 195 ± 90 nM; in [6], 285 ± 10 nM; in assay [7] it was 1700 ± 50 nM; in assay [8], 724 ± 170 nM.
